Reference: US7592154B2, “Modulating SOS response induction by antimicrobial agents” (The Board of Trustees of the Leland Stanford Junior …, priority 2005, dated 2009)

What was measured:
[1] = test system: dpiB promoter (dpiBA operon); test: dpiB/lacZ reporter fusion (pHI1508), β-galactosidase synthesis; type: cell-based, E. coli; conditions: for expression of the dpi operon (lacZ reporter fusion to the dpiB promoter): E. coli UT481 pHI1508, 30° C., antibiotics at approximately twice the MIC (FIG. 2A)
Method: FIGS. 2A-2C. […] (A) Expression of the dpi operon as measured in lacZ^− E. coli strain UT481 by a lacZ reporter fusion to the dpiB promoter on pHI1508 [in Miller units]. Bacteria were grown at 30° C. with or without (black squares) antibiotics. […] All antibiotics were added at approximately twice the MIC value for E. coli. All points represent the average of at least three separate experiments. (B) Induction of dpiB/lacZ (as measured by β-galactosidase expression calculated in Miller units) in E. coli JOE339, a lacZ^− mutant strain that carries an ftsl^ts mutation. […] (C) Same as (B) but in MC4100, the parent of JOE339. For (B) and (C), bars indicate SD.
We wished to identify stimuli that activate the dpiBA operon; to monitor such activation, we fused a Hind III-Sma I DNA segment containing the region 5′ to dpiB to a lacZ reporter gene fragment (pHI1508 in FIG. 1A) pHI1508 carries a HindIII-SmaI fragment containing the dpiBA operator/promoter and the first 1219 nucleotides of dpiB (indicated by the heavy bar), inserted into the StuI-HindIII sites of pHI1496, fusing it to the lacZ reporter gene (S1). β-Galactosidase synthesis from this construct was investigated under a variety of growth-limiting conditions known to activate two-component systems and/or the SOS response (including growth in media containing different carbon sources; starvation for O2, PO4, or carbon; heat or cold shock; high salt; exposure to ultraviolet light; culture in stationary phase or in conditioned media; and concentration to a high cell density).

E. coli PBPs = conditions: cited from earlier work
[2] = test system: pabA promoter (gene up-regulated by DpiA); test: pabA/lacZ fusion (pHI1627), β-galactosidase production; type: cell-based, E. coli; conditions: ampicillin 10 μg/ml, 2 hours, 37° C.
Source text: A library of E. coli promoters fused to a lacZ gene fragment was constructed as follows: SC1088 chromosomal DNA was partially digested with Sau3AI and 1-2 kb fragments were gel extracted, purified, and ligated to the BamHI site of pHI1496, a lacZ expression vector conferring chloramphenicol resistance (S1). […] Three clones were sequenced and found to contain a 5 kb insert in which the melR promoter region was fused to lacZ (pHI1626), a 300 bp fragment that includes the promoter region of pabA (pHI1627), and a 2.5 kb insert containing the 57-minute region of the E. coli chromosome (pHI1628).

dpiBA transcripts = test: quantitative RT-PCR of dpiBA transcripts; type: cell-based, E. coli; conditions: SC1088, 30° C., ampicillin 4 μg/ml for 4 hours (FIG. 1C)
Source text: (§1) FIGS. 1A-1C. Structure and transcripts of the dpiBA operon. (A) The dpiB and dpiA genes are aligned in the 5′-3′ direction; citC is 5′ of the dpiBA promoter/operator region and is transcribed divergently from it. The segment of the dpiBA operon included in plasmid pHI1508 is indicated. (B) Agarose gel electrophoresis showing bands generated by reverse transcription PCR amplification of E. coli SC1088 RNA using pairs of oligonucleotide primers corresponding to sequences within dpiB (lane 1, primers a+b), dpiA (lane 2, primers c+d), or both genes (lane 3, primers a+d). Locations of primer sequences are indicated in (A). […] Amounts of template RNA used and loaded onto gels were equal, as assessed by intensity of 16S rRNA bands (bottom panel).

citC gene = test: quantitative RT-PCR of citC expression; type: cell-based, E. coli; conditions: SC1088, 30° C., ampicillin 4 μg/ml for 4 hours (FIG. 1C)
Source text: as §1

[3] = test system: SOS-regulated promoter of the sfiA gene; test: sfiA/lacZ fusion, measure of SOS response; type: cell-based, E. coli
Source text: FIGS. 3A-3B. SOS response induced by PBP3 inactivation. […] Both (A) and (B) are averages of three separate experiments. Strains were constructed by P1 transduction. Strain 1088 was transduced with phage P1 from E. coli strains containing recA::Tn10(S3) and lexA71::Tn5 (from Mary Berlyn, CGSC). Strain BR5171 is BR3151 (S4) containing a kanamycin resistance gene introduced into the dpiA locus to create a null mutation; another BR3151 derivative, BR7171, contains a Tn10 insertion in the recA locus to create a null mutation. […] An sfiA/lacZ fusion closely linked to a kanamycin resistance marker (S5) was incorporated into the chromosome of ftsIts strain JOE339 and a JOE339 derivative containing a chloramphenicol resistance gene in the dpiA gene (S1).
A biological consequence of DpiA overexpression is induction of the SOS response; the extent of such induction can be determined by β-galactosidase synthesis from a lacZ fusion with the SOS-regulated promoter of the sfiA gene [e.g. Bacolla et al. (2001) J. Biol. Chem. 276, 18579; Hendricks et al. (2000) Mol. Microbiol. 36, 973], which prevents FtsZ polymerization and inhibits cell division when SOS is activated.
The dependence of β-lactam/PBP3-mediated SOS induction on dpiA contrasted with the lack of effect of the dpiA mutation on RecA expression induced by the DNA damaging agent mitomycin C, indicating the distinctive nature of the cell wall-mediated and DNA damage-mediated paths to SOS induction.

RecA protein = test: Western blot with anti-RecA antibody; type: cell-based, E. coli; conditions: one hour of exposure, relative to absence of induction
Source text: Chemiluminescence of bands was quantitated using a BioRad Versadoc 1000 instrument.

[4] = test system: E. coli SC1088 wild-type and dpiA, recA, sfiA null mutants; test: survival of bacterial cultures exposed to antibiotic (cfu counting); type: cell-based; conditions: for effectiveness (survival) in recA mutant cells versus wild type SC1088: naladixic acid 5 μg/ml, pipericillin 1 μg/ml, kanamycin 5 μg/ml (FIGS. 5A-5C)
Method: FIG. 4. Effect of SOS response induction on survival of bacterial cells expressing DpiA during β-lactam exposure. […] Survival data are also shown for strains containing null mutations in recA (open diamonds), dpiA (open circles), or sfiA (open triangles). […] Percent survival was determined by counting of colony forming units (cfu's), at least 200 colonies were counted per time point, and plotted as a function of exposure time before exposure or after exposure to antibiotics.
Because β-lactam antibiotics kill only bacteria that are dividing, we hypothesized that the ability of these drugs to induce the SOS response, and consequently delay cell division by increasing the expression of sfiA, may provide temporary protection from β-lactam lethality.
The experiments shown in FIG. 4 were repeated with the antibiotics: naladixic acid, at 5 μg/ml; pipericillin, at 1 μg/ml; and kanamycin at 5 μg/ml. As shown in FIGS. 5A-5C, the black squares are wild type cells, strain SC1088, the green circles are the dpiA null strain in that background, and the red diamonds are the recA mutation in that background.

[5] = test system: dpiB promoter (dpiBA operon); test: dpiB/lacZ reporter fusion (pHI1508), β-galactosidase synthesis; type: cell-based, E. coli; conditions: ampicillin 10 μg/ml, 2 hours, 37° C.

Question: Which “expression of the dpi operon (lacZ reporter fusion to the dpiB promoter)” value (“expression of the dpi operon” for short) [1] does the source give for penicillin here?
Answer: stimulated

Question: Which “expression of the dpi operon” value [1] does the source give for `CC1=C(C(=O)O)N2C(=O)[C@@H](NC(=O)[C@H](N)c3ccccc3)[C@H]2SC1` [cephalexin] here?
Answer: stimulated

Question: What about the “binding to E. coli PBPs” value (E. coli PBPs) of the same compound?
Answer: bind only to PBP3

Question: Which results are given for `CC1(C)S[C@@H]2[C@H](NC(=O)[C@H](N)c3ccccc3)C(=O)N2[C@H]1C(=O)O` [ampicillin]?
Answer: expression of the dpi operon (lacZ reporter fusion to the dpiB promoter) [1]: stimulated; induction of the dpi operon ([1]; ampicillin resistant bacteria carrying a plasmid borne gene encoding β-lactamase): not observed; β-Galactosidase production ([2]; WT strain 1088 + pHI1627): 185 ± 20 Miller units; β-Galactosidase production ([2]; dpiA null mutant + pHI1627): 18 ± 1 Miller units; increase in dpiBA transcripts (dpiBA transcripts): fourfold; increase in expression of citC gene (citC gene): threefold; lacZ expression from sfiA/lacZ fusion ([3]; BR3151, ampicillin 4 μg/ml (FIG. 3A)): increased lacZ expression; sfiA/lacZ expression ([3]; bacteria containing a dpiA null mutation, ampicillin 4 μg/ml (FIG. 3A)): no change; effect on expression of the sfiA/lacZ fusion ([3]; recA or lexA mutants, ampicillin treatment (FIG. 3A)): prevented the effects; RecA protein increase (RecA protein; dpiA::Km null mutant): no increase; RecA protein increase (RecA protein; wt strain 1088, 4 μg/ml): 1.9±0.4 fold; cells unable to form colonies ([4]; cells mutated in dpiA, recA, or sfiA, 1 hour exposure, 3 μg/ml): 90%; exposure required for the same extent of killing (90%) of wild-type cells ([4]; 3 μg/ml): 4 h; exposure required for the same extent of killing (90%) of wild-type cells ([4]; 9 μg/ml): 1 h; β-Galactosidase production ([5]; WT strain 1088 + pHI1508): 345 ± 50 Miller units; β-Galactosidase production ([5]; dpiA null mutant + pHI1508): 113 ± 15 Miller units; β-Galactosidase production ([5]; lexA null mutant + pHI1508): 110 ± 10 Miller units; β-Galactosidase production ([5]; recA null mutant + pHI1508): 80 ± 8 Miller units; binding to E. coli PBPs (E. coli PBPs): binds to all 12 E. coli PBPs

Question: For `CCN1CCN(C(=O)N[C@@H](C(=O)N[C@@H]2C(=O)N3[C@@H]2SC(C)(C)[C@@H]3C(=O)O)c2ccccc2)C(=O)C1=O` [pipericillin], which “expression of the dpi operon” value [1] is on record?
Answer: stimulated

Question: What about the “survival relative to the number before addition of antibiotic” value ([4]; dpiA mutant bacteria, overnight exposure, 2 μg/ml) of the same compound?
Answer: 0.001%

Question: What about the “effectiveness (survival) in recA mutant cells versus wild type SC1088” value [4] of the same compound?
Answer: more effective

Question: What about the “surviving wild-type bacteria versus dpiA mutant bacteria” value ([4]; overnight exposure, 2 μg/ml) of the same compound?
Answer: 10 times

Question: What about the “survival relative to the number before addition of antibiotic” value ([4]; wild-type bacteria, overnight exposure, 2 μg/ml) of the same compound?
Answer: 0.01%

Question: And the “binding to E. coli PBPs” value (E. coli PBPs)?
Answer: bind only to PBP3

Question: For `CO[C@@]12[C@H](COC(N)=O)C3=C(C(=O)C(C)=C(N)C3=O)N1C[C@@H]1N[C@@H]12` [mitomycin C], which RecA protein increase (RecA protein; dpiA::Km null mutant) is on record?
Answer: 2.0±0.3 fold

Question: What about the RecA protein increase (RecA protein; wt strain 1088, 4 μg/ml) of the same compound?
Answer: 1.5±0.2 fold

Question: For `CCn1cc(C(=O)O)c(=O)c2ccc(C)nc21` [nalidixic acid], which “effectiveness (survival) in recA mutant cells versus wild type SC1088” value [4] is on record?
Answer: more effective

Question: With `CO/N=C(\C(=O)N[C@@H]1C(=O)N2C(C(=O)O)=C(COC(N)=O)CS[C@H]12)c1ccco1` [cefuroxan] as the compound, how does the “expression of the dpi operon” value [1] read?
Answer: stimulated
